Consider six compounds from patent publication US9593122B2, “Substituted pyrazolylpyrazole derivative and use of same as herbicide” (KYOYU AGRI CO., LTD., priority 2013, dated 2017).

What all share (format): in vivo
One assay deals with Echinochloa crus-galli. Kind of assay: Paddy herbicidal activity test. The settings on record: irrigated paddy pot, treated at 3.5 leaf stage of Echinochloa crus-galli, 30 days. How it is done:
(§1) Rice paddy soil was filled into a 1/10000 are pot followed by the addition of suitable amounts of water and chemical fertilizer, kneading, seeding with Echinochloa crus-galli, Monochoria vaginalis and Scirpus juncoides and maintaining in an irrigated state at a water depth of 3 cm.
(§2) Wettable powder of Target Compound (I) shown in Table 1 prepared in compliance with the preparation examples were diluted with a suitable amount of water, rice plants in the 2.0 leaf stage were transplanted during 3.5 leaf stage of Echinochloa crus-galli, and treated by dropping in chemical in the prescribed amount per are using a pipette.
(§3) After treating for 30 days in a glass greenhouse at an average atmospheric temperature of 30° C., the herbicidal efficacy thereof was investigated.
(§4) Evaluation of herbicidal efficacy was carried out by comparing growth inhibition rate (%) with an untreated group, while evaluation of phytotoxicity was carried out by comparing growth inhibition rate (%) with the state of a complete eradication group, and were evaluated at 11 levels indicated below.

Another assay has as its system Monochoria vaginalis. As to the kind of experiment: Paddy herbicidal activity test. The conditions noted are these: irrigated paddy pot, 30 days. How it is done: as §1, §2, §3, §4
The subject of another assay is Scirpus juncoides. As to the kind of experiment: Paddy herbicidal activity test. The conditions noted are these: irrigated paddy pot, 30 days. Here is the method: as §1, §2, §3, §4
Assay [1] relates to Amaranthus retroflexus. As to the kind of experiment: Farming soil treatment test. The conditions noted are these: soil surface spray prior to weed growth, 30 days. How it is done:
(§5) Field soil was filled into a 1/6000 are pot followed by seeding with Digitaria ciliaris, Chenopodium album and Amaranthus retroflexus and covering with soil.
(§6) Wettable powder of compounds of formula (I) shown in Table 1 prepared in compliance with the preparation examples were diluted with water to the prescribed amount of chemical and uniformly sprayed onto each soil surface layer using 10 liters of sprayed water per are prior to weed growth following seeding.
as §3
(§7) Evaluation of herbicidal efficacy is carried out in the same manner as the above-mentioned Test Example 1.

Assay [2] deals with Chenopodium album. Kind of assay: Farming soil treatment test. The conditions noted are these: soil surface spray prior to weed growth, 30 days. Here is the method:
as §5, §6, §3, §7

The test system of assay [3] is Digitaria ciliaris. Kind of assay: Farming soil treatment test. The conditions noted are these: soil surface spray prior to weed growth, 30 days. How it is done:
as §5, §6, §3, §7

The test system of assay [4] is Amaranthus retroflexus. As to the kind of experiment: Weed foliar treatment test. The settings on record: foliar spray, 3 weeks. How it is done: (§8) Soil was filled into a 1/6000 are pot followed by seeding with Digitaria ciliaris, Chenopodium album and Amaranthus retroflexus, covering with soil, and cultivating in a glass greenhouse at an average atmospheric temperature of 25° C.
(§9) Wettable powder of Target Compound (I) shown in Table 1 prepared in compliance with the preparation examples were diluted with water to the prescribed amount of chemical and uniformly sprayed onto the weeds using 15 liters of sprayed water per are when Digitaria ciliaris had grown to the 1.0 to 2.0 leaf stage.
(§10) After treating for 3 weeks in a glass greenhouse at an average atmospheric temperature of 25° C., the herbicidal efficacy thereof was investigated.
(§11) Evaluation of herbicidal efficacy was carried out in the same manner as the above-mentioned Test Example 1.

Assay [5] concerns Chenopodium album. Kind of assay: Weed foliar treatment test. The settings on record: foliar spray, 3 weeks. Here is the method: as §8, §9, §10, §11
Assay [6] has as its system Digitaria ciliaris. As to the kind of experiment: Weed foliar treatment test. The conditions noted are these: foliar spray at 1.0 to 2.0 leaf stage of Digitaria ciliaris, 3 weeks. How it is done: as §8, §9, §10, §11

Molecules are shown by their SMILES.

Regarding `CC=CCNc1c(C#N)cnn1-c1nn2c(c1Cl)CCCC2` (mixture of isomers) [Compound 12], the “Echinochloa crus-galli herbicidal efficacy (growth inhibition level)” value was 9 (9: 90% to less than 100%) with Echinochloa crus-galli (1g a.i./10a) and 10 (10: 100%) in the assay with Echinochloa crus-galli (5g a.i./10a). Moreover, the “Monochoria vaginalis herbicidal efficacy (growth inhibition level)” value is 9 (9: 90% to less than 100%) with Monochoria vaginalis (1g a.i./10a) and 10 (10: 100%) with Monochoria vaginalis (5g a.i./10a). Besides, the “Scirpus juncoides herbicidal efficacy (growth inhibition level)” value is 8 (8: 80% to less than 90%) in the assay on Scirpus juncoides (1g a.i./10a) and 9 (9: 90% to less than 100%) in the assay with Scirpus juncoides (5g a.i./10a). Besides, the “Amaranthus retroflexus herbicidal efficacy (growth inhibition level)” value with Amaranthus retroflexus [1] (5g a.i./10a), with Amaranthus retroflexus [1] (10g a.i./10a), in the assay with Amaranthus retroflexus [4] (5g a.i./10a) and with Amaranthus retroflexus [4] (10g a.i./10a) was 10 (10: 100%) throughout. For the same compound, the “Chenopodium album herbicidal efficacy (growth inhibition level)” value in the assay on Chenopodium album [2] (5g a.i./10a), with Chenopodium album [2] (10g a.i./10a), in the assay with Chenopodium album [5] (5g a.i./10a) and in the assay on Chenopodium album [5] (10g a.i./10a) was 10 (10: 100%) throughout. The “Digitaria ciliaris herbicidal efficacy (growth inhibition level)” value with Digitaria ciliaris [3] (5g a.i./10a), in the assay on Digitaria ciliaris [3] (10g a.i./10a), in the assay on Digitaria ciliaris [6] (5g a.i./10a) and in the assay on Digitaria ciliaris [6] (10g a.i./10a) was 10 (10: 100%) throughout.

For `CC=CCN(C(=O)C(F)(F)F)c1c(C#N)cnn1-c1nn2c(c1Cl)CCCC2` (mixture of isomers) [Compound 24], the figures for the “Echinochloa crus-galli herbicidal efficacy (growth inhibition level)” value with Echinochloa crus-galli (1g a.i./10a) and with Echinochloa crus-galli (5g a.i./10a) were 9 (9: 90% to less than 100%) and 10 (10: 100%), respectively. Besides, the “Monochoria vaginalis herbicidal efficacy (growth inhibition level)” value with Monochoria vaginalis (1g a.i./10a) is 8 (8: 80% to less than 90%); in the assay with Monochoria vaginalis (5g a.i./10a), 9 (9: 90% to less than 100%). The “Scirpus juncoides herbicidal efficacy (growth inhibition level)” value with Scirpus juncoides (1g a.i./10a) is listed as 8 (8: 80% to less than 90%); in the assay with Scirpus juncoides (5g a.i./10a), 9 (9: 90% to less than 100%). Moreover, the “Amaranthus retroflexus herbicidal efficacy (growth inhibition level)” value with Amaranthus retroflexus [1] (5g a.i./10a), in the assay on Amaranthus retroflexus [1] (10g a.i./10a), in the assay on Amaranthus retroflexus [4] (5g a.i./10a) and in the assay on Amaranthus retroflexus [4] (10g a.i./10a) was 10 (10: 100%) throughout. Also, the “Chenopodium album herbicidal efficacy (growth inhibition level)” value in the assay with Chenopodium album [2] (5g a.i./10a), with Chenopodium album [2] (10g a.i./10a), in the assay with Chenopodium album [5] (5g a.i./10a) and in the assay with Chenopodium album [5] (10g a.i./10a) was 10 (10: 100%) in each case. Besides, the “Digitaria ciliaris herbicidal efficacy (growth inhibition level)” value with Digitaria ciliaris [3] (5g a.i./10a), in the assay with Digitaria ciliaris [3] (10g a.i./10a), with Digitaria ciliaris [6] (5g a.i./10a) and with Digitaria ciliaris [6] (10g a.i./10a) was 10 (10: 100%) throughout.

Turning to `N#Cc1cnn(-c2nn3c(c2Cl)CCCC3)c1N(C/C=C\Cl)C(=O)C(F)(F)F` [Compound 21], the “Echinochloa crus-galli herbicidal efficacy (growth inhibition level)” value in the assay on Echinochloa crus-galli (1g a.i./10a) and with Echinochloa crus-galli (5g a.i./10a) was 9 (9: 90% to less than 100%) throughout. In addition, the “Monochoria vaginalis herbicidal efficacy (growth inhibition level)” value in the assay on Monochoria vaginalis (1g a.i./10a) and with Monochoria vaginalis (5g a.i./10a) was 9 (9: 90% to less than 100%) throughout. The “Scirpus juncoides herbicidal efficacy (growth inhibition level)” value in the assay on Scirpus juncoides (1g a.i./10a) was 8 (8: 80% to less than 90%); in the assay on Scirpus juncoides (5g a.i./10a) it was 10 (10: 100%). In addition, the “Amaranthus retroflexus herbicidal efficacy (growth inhibition level)” value in the assay with Amaranthus retroflexus [1] (5g a.i./10a), in the assay on Amaranthus retroflexus [1] (10g a.i./10a), in the assay with Amaranthus retroflexus [4] (5g a.i./10a) and in the assay with Amaranthus retroflexus [4] (10g a.i./10a) was 10 (10: 100%) throughout. The “Chenopodium album herbicidal efficacy (growth inhibition level)” value in the assay with Chenopodium album [2] (5g a.i./10a), with Chenopodium album [2] (10g a.i./10a), with Chenopodium album [5] (5g a.i./10a) and in the assay with Chenopodium album [5] (10g a.i./10a) was 10 (10: 100%) throughout. The “Digitaria ciliaris herbicidal efficacy (growth inhibition level)” value with Digitaria ciliaris [3] (5g a.i./10a), in the assay on Digitaria ciliaris [3] (10g a.i./10a), in the assay on Digitaria ciliaris [6] (5g a.i./10a) and in the assay on Digitaria ciliaris [6] (10g a.i./10a) was 10 (10: 100%) each time.

As to `C=C(Cl)CNc1c([N+](=O)[O-])cnn1-c1nn2c(c1Cl)CCCC2` [Compound 30], the entries for the “Echinochloa crus-galli herbicidal efficacy (growth inhibition level)” value with Echinochloa crus-galli (1g a.i./10a) and in the assay with Echinochloa crus-galli (5g a.i./10a) were 9 (9: 90% to less than 100%) and 10 (10: 100%), respectively. Besides, the “Monochoria vaginalis herbicidal efficacy (growth inhibition level)” value is 9 (9: 90% to less than 100%) in the assay with Monochoria vaginalis (1g a.i./10a) and 10 (10: 100%) in the assay with Monochoria vaginalis (5g a.i./10a). The “Scirpus juncoides herbicidal efficacy (growth inhibition level)” value in the assay with Scirpus juncoides (1g a.i./10a) is 8 (8: 80% to less than 90%); with Scirpus juncoides (5g a.i./10a) it was 10 (10: 100%). Moreover, the “Amaranthus retroflexus herbicidal efficacy (growth inhibition level)” value with Amaranthus retroflexus [1] (5g a.i./10a), with Amaranthus retroflexus [1] (10g a.i./10a), in the assay with Amaranthus retroflexus [4] (5g a.i./10a) and in the assay with Amaranthus retroflexus [4] (10g a.i./10a) was 10 (10: 100%) throughout. Also, the “Chenopodium album herbicidal efficacy (growth inhibition level)” value in the assay on Chenopodium album [2] (5g a.i./10a), with Chenopodium album [2] (10g a.i./10a), with Chenopodium album [5] (5g a.i./10a) and in the assay with Chenopodium album [5] (10g a.i./10a) was 10 (10: 100%) throughout. In addition, the “Digitaria ciliaris herbicidal efficacy (growth inhibition level)” value with Digitaria ciliaris [3] (5g a.i./10a), in the assay on Digitaria ciliaris [3] (10g a.i./10a), in the assay on Digitaria ciliaris [6] (5g a.i./10a) and in the assay with Digitaria ciliaris [6] (10g a.i./10a) was 10 (10: 100%) each time.

For `C=C(Cl)CN(C(=O)C(F)(F)F)c1c(C#N)cnn1-c1nn2c(c1Br)CCCC2` [Compound 51], the “Echinochloa crus-galli herbicidal efficacy (growth inhibition level)” value in the assay on Echinochloa crus-galli (1g a.i./10a) and with Echinochloa crus-galli (5g a.i./10a) was 9 (9: 90% to less than 100%) in each case. The “Monochoria vaginalis herbicidal efficacy (growth inhibition level)” value in the assay on Monochoria vaginalis (1g a.i./10a) and with Monochoria vaginalis (5g a.i./10a) was 8 (8: 80% to less than 90%) in each case. In addition, the “Scirpus juncoides herbicidal efficacy (growth inhibition level)” value in the assay with Scirpus juncoides (1g a.i./10a) and with Scirpus juncoides (5g a.i./10a) was 8 (8: 80% to less than 90%) throughout.

Turning to `N#Cc1cnn(-c2nn3c(c2Br)CCCC3)c1N(C/C=C\Cl)C(=O)C(F)(F)F` [Compound 53], the entries for the “Echinochloa crus-galli herbicidal efficacy (growth inhibition level)” value in the assay on Echinochloa crus-galli (1g a.i./10a) and in the assay on Echinochloa crus-galli (5g a.i./10a) were 9 (9: 90% to less than 100%) and 10 (10: 100%), respectively. The figures for the “Monochoria vaginalis herbicidal efficacy (growth inhibition level)” value in the assay with Monochoria vaginalis (1g a.i./10a) and in the assay on Monochoria vaginalis (5g a.i./10a) were 7 (7: 70% to less than 80%) and 8 (8: 80% to less than 90%), respectively. For the same compound, the “Scirpus juncoides herbicidal efficacy (growth inhibition level)” value is recorded as 7 (7: 70% to less than 80%) with Scirpus juncoides (1g a.i./10a) and 8 (8: 80% to less than 90%) in the assay with Scirpus juncoides (5g a.i./10a).
